Measurements reported in article PMC2694132 (Cancer research, 2009).

Columns and labels:
UGT1A5 = molecular target: T1, UGT1A5 (Homo sapiens, UniProt P35504); assay: SAHA glucuronidation screen, UGT1A5-overexpressing cell homogenate; type: in vitro ADME; conditions: 400 μg UGT-overexpressing cell homogenate, 1-h incubation
T1 sequence (P35504 29-534): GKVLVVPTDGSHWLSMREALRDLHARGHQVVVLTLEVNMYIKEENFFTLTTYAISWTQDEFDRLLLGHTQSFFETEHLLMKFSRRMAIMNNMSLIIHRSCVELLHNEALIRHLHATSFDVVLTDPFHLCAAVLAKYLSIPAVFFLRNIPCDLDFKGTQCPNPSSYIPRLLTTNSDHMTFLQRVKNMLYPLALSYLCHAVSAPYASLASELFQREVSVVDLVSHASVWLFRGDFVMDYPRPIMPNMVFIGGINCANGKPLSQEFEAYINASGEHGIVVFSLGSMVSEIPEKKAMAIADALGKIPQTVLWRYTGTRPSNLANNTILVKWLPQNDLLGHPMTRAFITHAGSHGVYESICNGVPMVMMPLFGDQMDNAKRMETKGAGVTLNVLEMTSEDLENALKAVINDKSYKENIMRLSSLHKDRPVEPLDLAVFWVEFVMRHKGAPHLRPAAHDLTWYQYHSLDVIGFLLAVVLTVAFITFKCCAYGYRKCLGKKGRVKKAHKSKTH

UGT2B7 = molecular target: T2, UGT2B7 (Homo sapiens, UniProt P16662); assay: SAHA glucuronidation screen, UGT2B7-overexpressing cell homogenate; type: in vitro ADME
T2 sequence (P16662 24-529): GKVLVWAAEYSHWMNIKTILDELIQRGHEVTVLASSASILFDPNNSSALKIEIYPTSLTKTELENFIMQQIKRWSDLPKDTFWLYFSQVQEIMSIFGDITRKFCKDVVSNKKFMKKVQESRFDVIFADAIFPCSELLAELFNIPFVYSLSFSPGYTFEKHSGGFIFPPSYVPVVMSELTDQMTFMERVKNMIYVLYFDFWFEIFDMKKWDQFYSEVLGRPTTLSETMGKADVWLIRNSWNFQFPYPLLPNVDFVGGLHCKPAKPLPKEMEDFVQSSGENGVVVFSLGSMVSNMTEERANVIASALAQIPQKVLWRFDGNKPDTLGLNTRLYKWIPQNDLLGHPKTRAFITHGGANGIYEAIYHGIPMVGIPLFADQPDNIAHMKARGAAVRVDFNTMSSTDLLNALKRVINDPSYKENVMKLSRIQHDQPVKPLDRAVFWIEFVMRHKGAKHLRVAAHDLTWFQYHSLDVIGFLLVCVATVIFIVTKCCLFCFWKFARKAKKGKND

[1] = patients treated with SAHA; cited from earlier work
[2] = molecular target: T3, UGT1A7*2 [UGT1A7p.(Asn129Lys)+(Arg131Lys)] (Homo sapiens, UniProt Q9HAW7, N129K/R131K); assay: SAHA glucuronidation, UGT1A7*2 variant cell homogenate; type: in vitro ADME
T3 sequence (Q9HAW7 26-530 N129K/R131K): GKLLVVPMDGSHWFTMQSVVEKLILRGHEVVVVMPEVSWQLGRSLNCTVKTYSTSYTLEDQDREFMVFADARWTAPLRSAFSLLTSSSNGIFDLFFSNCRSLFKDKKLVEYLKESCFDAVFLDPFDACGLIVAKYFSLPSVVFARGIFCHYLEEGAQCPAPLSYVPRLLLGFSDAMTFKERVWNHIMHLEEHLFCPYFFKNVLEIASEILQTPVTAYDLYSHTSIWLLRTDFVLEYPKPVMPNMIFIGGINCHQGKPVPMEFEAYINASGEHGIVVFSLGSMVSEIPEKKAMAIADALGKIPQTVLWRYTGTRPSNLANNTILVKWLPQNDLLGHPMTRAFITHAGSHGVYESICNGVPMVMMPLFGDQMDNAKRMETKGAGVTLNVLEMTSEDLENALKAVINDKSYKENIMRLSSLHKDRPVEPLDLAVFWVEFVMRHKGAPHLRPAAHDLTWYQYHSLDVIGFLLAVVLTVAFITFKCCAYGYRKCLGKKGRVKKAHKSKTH

UGT2B15 = molecular target: T4, UGT2B15 (Homo sapiens, UniProt P54855); assay: SAHA glucuronidation screen, UGT2B15-overexpressing cell homogenate; type: in vitro ADME; conditions: 400 μg UGT-overexpressing cell homogenate, 1-h incubation
T4 sequence (P54855 24-530): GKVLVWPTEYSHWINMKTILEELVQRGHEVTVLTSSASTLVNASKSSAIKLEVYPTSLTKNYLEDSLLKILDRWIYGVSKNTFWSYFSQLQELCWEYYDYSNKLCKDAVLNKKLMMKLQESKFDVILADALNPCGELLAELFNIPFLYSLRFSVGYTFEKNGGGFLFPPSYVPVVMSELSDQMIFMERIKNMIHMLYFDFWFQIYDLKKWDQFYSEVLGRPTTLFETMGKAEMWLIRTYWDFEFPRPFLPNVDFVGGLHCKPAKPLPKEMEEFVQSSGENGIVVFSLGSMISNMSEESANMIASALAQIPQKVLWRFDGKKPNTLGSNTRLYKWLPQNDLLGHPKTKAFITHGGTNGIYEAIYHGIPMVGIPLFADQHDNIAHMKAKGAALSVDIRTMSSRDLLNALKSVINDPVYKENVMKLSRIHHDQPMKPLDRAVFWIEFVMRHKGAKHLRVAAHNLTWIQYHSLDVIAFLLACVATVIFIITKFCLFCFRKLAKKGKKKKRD

UGT2B10 = molecular target: T5, UGT2B10 (Homo sapiens, UniProt P36537); assay: SAHA glucuronidation screen, UGT2B10-overexpressing cell homogenate; type: in vitro ADME; conditions: 400 μg UGT-overexpressing cell homogenate, 1-h incubation
T5 sequence (P36537 24-528): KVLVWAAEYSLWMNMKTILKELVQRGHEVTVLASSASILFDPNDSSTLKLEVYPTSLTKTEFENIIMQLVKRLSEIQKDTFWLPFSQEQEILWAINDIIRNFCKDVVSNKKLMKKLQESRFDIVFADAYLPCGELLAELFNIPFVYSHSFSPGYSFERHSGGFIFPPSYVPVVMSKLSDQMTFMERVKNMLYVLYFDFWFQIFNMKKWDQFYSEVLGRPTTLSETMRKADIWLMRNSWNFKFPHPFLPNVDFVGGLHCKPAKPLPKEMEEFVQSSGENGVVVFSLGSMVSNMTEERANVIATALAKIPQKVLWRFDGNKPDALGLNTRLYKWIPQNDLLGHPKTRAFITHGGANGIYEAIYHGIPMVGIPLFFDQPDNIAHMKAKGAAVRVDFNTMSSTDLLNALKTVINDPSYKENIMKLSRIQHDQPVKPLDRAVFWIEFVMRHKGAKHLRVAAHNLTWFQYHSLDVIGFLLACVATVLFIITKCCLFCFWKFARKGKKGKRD

**Q.** With `O=C(CCCCCCC(=O)Nc1ccccc1)NO` [SAHA, Suberoylanilide hydroxamic acid] as the molecule, how does the “glucuronidation activity against SAHA (screen)” value (UGT1A5) read?
**A.** Its value is “No detectable glucuronidation activity”.

**Q.** What about the “glucuronidation against SAHA” value (UGT2B7; 400 μg UGT-overexpressing cell homogenate, 1-h incubation) of the same molecule?
**A.** The value was “detectable levels of glucuronidation”.

**Q.** And the Km at 1 h (UGT2B7; human, UGT2B7-overexpressing cell homogenate, pH 7.5)?
**A.** Its Km at 1 h is over 8000 µM.

**Q.** And the apparent terminal half-life [1]?
**A.** The apparent terminal half-life was ~ 1.8 hours.

**Q.** And the “difference in glucuronidation activity against SAHA versus wild-type UGT1A7” value ([2]; UGT1A7 variants)?
**A.** The value was “No significant difference”.

**Q.** And the Km at 1 h ([2]; human, pH 7.5)?
**A.** Its Km at 1 h is 2500 ± 300 µM.

**Q.** What about the “glucuronidation activity against SAHA (screen)” value (UGT2B15) of the same molecule?
**A.** Its value is “No detectable glucuronidation activity”.

**Q.** And the “glucuronidation activity against SAHA (screen)” value (UGT2B10)?
**A.** The value was “No detectable glucuronidation activity”.
